# From patent publication US20240041840A1 (Areteia Therapeutics, Inc., priority 2020, published 2024)
# Read-outs that look alike come from different tables or passages of the source.
# Tests used:
# [1] = tested on: subjects with eosinophilic asthma; details: for Post-Bronchodilator FEV1 Reversibility % change, mean / Post-Bronchodilator FEV1 Reversibility % change, median / Post-Bronchodilator FEV1 Reversibility change, mean / Post-Bronchodilator FEV1 Reversibility change, median / Post-Bronchodilator FEV1 Reversibility observed, mean / Post-Bronchodilator FEV1 Reversibility observed, median: Week 12
# Protocol: (§1) Pulmonary function is measured by performing a spirometry, which measures forced expiratory volume in is (FEV1), the volume of air moved in the first second of exhalation, this is a well-accepted measure of asthma. Forced vital capacity (FVC) is the total volume of air exhaled during the entire forced expiratory volume (FEV) test. The FEV1/FVC ratio is a calculated measure that may provide a more specific measure of bronchoconstriction, independent of processes such as air trapping. Pulmonary function testing can be tested pre-bronchodilator (after waiting a sufficient time so that all bronchodilator medications have cleared) or post-bronchodilator, typically 15-30 minutes after inhaling a short-acting bronchodilator, such as albuterol. Bronchodilator reversibility (BDR) is calculated and assessed by analyzing FEV1 pre- and post-bronchodilator, and calculating the change both as absolute (ml) and percentage change.
# Table 10 provides the data for analyzing bronchodilator reversibility, the % improvement in FEV1 pre/post albuterol bronchodilator (same day). The study entry criteria required ≥12% and ≥200 mL at screening. These values are accepted in the diagnosis of asthma.
# [2] = tested on: subjects with eosinophilic asthma
# Text: Evaluation of Safety: Physical examination, vital signs (systolic and diastolic blood pressure, respiratory rate, heart rate, and temperature), body weight, 12-lead ECG, clinical laboratory evaluations (hematology, blood chemistry, and urinalysis), pregnancy testing, adverse event monitoring, and concomitant medication were monitored throughout the study. […] A neutropenia case report form was utilized during the study to capture detailed clinical information concurrent with any laboratory events of neutropenia.
# [3] = tested on: subjects with eosinophilic asthma; details: for ACQ-6 Change from Baseline LSM / ACQ-6 Difference vs Placebo LSM (95% CI): 12 weeks
# Text: The ACQ cutoff for well-controlled asthma is a score of about 0.75, and the ACQ cutoff for uncontrolled asthma is a score of about ≥1.5. An ACQ score change of ≥0.5 is considered clinically significant.
# Evaluation of Efficacy: Blood eosinophil count, changes in pulmonary function (FEV1), Asthma Control Questionnaire (ACQ-6), Asthma Control Questionnaire (ACQ-7), Asthma Quality of Life Questionnaire (AQLQ), exhaled nitric oxide, pharyngeal and nasal eosinophil peroxidase were collected periodically during the study.
# Juniper Asthma Control Six Point Questionnaire (ACQ-6)—Baseline and visits 5, 8, 11 and 14. The ACQ-6 will be used to assess improvements in asthma symptom control (6). The ACQ-6 was originally validated in participants with asthma aged 17 to 90 years (2, 3, and is one of several asthma control measures recommended by GINA Guidelines). The ACQ-6 consists of 6 items: 5 items on symptom assessment, 1 item on rescue bronchodilator use. The ACQ-6 has been fully validated, including a minimal important difference (MID) or smallest change that can be considered clinically important (0.5). The ACQ-6 will be self-administered at the clinic (questions 1-6 only) and it only takes a few minutes to complete. Participants are asked how they have been feeling during the past week and to score each item on a […] response scale, where 0 indicates ‘totally controlled’ and 6 indicates ‘severely uncontrolled.’ The total score is calculated as the mean of all questions. The questionnaire should always be completed before any other assessments.
# [4] = tested on: subjects with eosinophilic asthma; remark: listed apart in the source
# Protocol: as §1
# Although some of the responsible factors are modifiable, such as suboptimal medication adherence and poor inhaler technique, others reflect intrinsic deficiencies in available asthma pharmacotherapy. This deficiency is particularly apparent in patients prone to severe asthma exacerbations. […] However, all of the biologics require parenteral administration. […] A 4-arm dose ranging placebo-controlled design was chosen to provide a range of drug exposure. Blood eosinophil lowering was chosen as the primary endpoint to facilitate identification of the lowest effective dose for use in future clinical development. The Primary Assessment Period of 12 weeks was chosen to provide adequate time to observe both pharmacodynamic endpoints, such as eosinophil lowering, as well as the clinical endpoints that may improve as a consequence of eosinophil lowering (FEV1, FVC, ACQ-6, ACQ-7, and AQLQ). The 12-week Eosinophil Recovery Period was chosen based on expected recovery to near baseline count in most subjects.
compound,measurement,setting,value
"CCCN[C@@H]1CCc2nc(N)sc2C1 [dexpramipexole, (6R)-2-amino-4,5,6,7-tetrahydro-6-(propylamino) benzothiazole]","Post-Bronchodilator FEV1 Reversibility % change, mean",[1]; 75 mg/day,−58.7%
same,"Post-Bronchodilator FEV1 Reversibility % change, median",[1]; 75 mg/day,−49.9%
same,"Post-Bronchodilator FEV1 Reversibility change, mean",[1]; 75 mg/day,-112 mL
same,"Post-Bronchodilator FEV1 Reversibility change, median",[1]; 75 mg/day,-55.0 mL
same,"Post-Bronchodilator FEV1 Reversibility observed, mean",[1]; 75 mg/day,264 mL
same,"Post-Bronchodilator FEV1 Reversibility observed, median",[1]; 75 mg/day,235 mL
same,"Post-Bronchodilator FEV1 Reversibility % change, mean",[1]; 150 mg/day,−39.8%
same,"Post-Bronchodilator FEV1 Reversibility % change, median",[1]; 150 mg/day,−9.68%
same,"Post-Bronchodilator FEV1 Reversibility change, mean",[1]; 150 mg/day,-72.3 mL
same,"Post-Bronchodilator FEV1 Reversibility change, median",[1]; 150 mg/day,0 mL
same,"Post-Bronchodilator FEV1 Reversibility observed, mean",[1]; 150 mg/day,279 mL
same,"Post-Bronchodilator FEV1 Reversibility observed, median",[1]; 150 mg/day,235 mL
same,"Post-Bronchodilator FEV1 Reversibility % change, mean",[1]; 300 mg/day,−19.6%
same,"Post-Bronchodilator FEV1 Reversibility % change, median",[1]; 300 mg/day,−19.0%
same,"Post-Bronchodilator FEV1 Reversibility change, mean",[1]; 300 mg/day,-109 mL
same,"Post-Bronchodilator FEV1 Reversibility change, median",[1]; 300 mg/day,-50.0 mL
same,"Post-Bronchodilator FEV1 Reversibility observed, mean",[1]; 300 mg/day,336 mL
same,"Post-Bronchodilator FEV1 Reversibility observed, median",[1]; 300 mg/day,290 mL
same,Bronchodilator reversibility,"[1]; Week 12, 3 DEX arms vs. placebo",preserved
same,Safety and tolerability,"[2]; 300 mg/day and 150 mg/day doses, KNS-760704-AS201 trial","Lastly, the excellent safety and tolerability of the above doses in the KNS-760704-AS201 trial and in previous"
same,Tolerability,"[2]; across all dose levels (75, 150, 300 mg/day, 12 weeks)",well-tolerated
same,ACQ-6 Change from Baseline LSM,[3]; 75 mg/day,−0.419
same,ACQ-6 Difference vs Placebo LSM (95% CI),[3]; 75 mg/day,"−0.0276 (−0.560, 0.505)"
same,ACQ-6 Change from Baseline LSM,[3]; 150 mg/day,−0.437
same,ACQ-6 Difference vs Placebo LSM (95% CI),[3]; 150 mg/day,"−0.0457 (−0.575, 0.484)"
same,ACQ-6 Change from Baseline LSM,[3]; 300 mg/day,−0.655
same,ACQ-6 Difference vs Placebo LSM (95% CI),[3]; 300 mg/day,"−0.264 (−0.772, 0.245)"
same,ACQ-6 scores,"[3]; across several dose groups, 12 weeks (Table 13)",improved
same,"Pre-Bronchodilator FVC, % change from Baseline, mean","[4]; 75 mg/day, Week 4",2.82%
same,Pre-bronchodilator FVC change from Baseline LSM,"[4]; 75 mg/day, Week 4",0.0925
same,Pre-bronchodilator FVC difference versus Placebo LSM,"[4]; 75 mg/day, Week 4",0.0785
same,"Pre-Bronchodilator FVC, % change from Baseline, mean","[4]; 75 mg/day, Week 8",7.17%
same,Pre-bronchodilator FVC change from Baseline LSM,"[4]; 75 mg/day, Week 8",0.155
same,Pre-bronchodilator FVC difference versus Placebo LSM,"[4]; 75 mg/day, Week 8",0.149
same,"Pre-Bronchodilator FVC, % change from Baseline, mean","[4]; 75 mg/day, Week 12",7.93%
same,Pre-bronchodilator FVC change from Baseline LSM,"[4]; 75 mg/day, Week 12",0.181
same,Pre-bronchodilator FVC difference versus Placebo LSM,"[4]; 75 mg/day, Week 12",0.140
same,"Pre-Bronchodilator FVC, % change from Baseline, mean","[4]; 75 mg/day, Week 16 or Week 18",13.4%
same,Pre-bronchodilator FVC change from Baseline LSM,"[4]; 75 mg/day, Week 16 or Week 18",0.297
same,Pre-bronchodilator FVC difference versus Placebo LSM,"[4]; 75 mg/day, Week 16 or Week 18",0.329
same,"Pre-Bronchodilator FVC, % change from Baseline, mean","[4]; 150 mg/day, Week 4",3.54%
same,Pre-bronchodilator FVC change from Baseline LSM,"[4]; 150 mg/day, Week 4",0.122
same,Pre-bronchodilator FVC difference versus Placebo LSM,"[4]; 150 mg/day, Week 4",0.108
same,"Pre-Bronchodilator FVC, % change from Baseline, mean","[4]; 150 mg/day, Week 8",5.28%
same,Pre-bronchodilator FVC change from Baseline LSM,"[4]; 150 mg/day, Week 8",0.152
same,Pre-bronchodilator FVC difference versus Placebo LSM,"[4]; 150 mg/day, Week 8",0.146
same,"Pre-Bronchodilator FVC, % change from Baseline, mean","[4]; 150 mg/day, Week 12",3.63%
same,Pre-bronchodilator FVC change from Baseline LSM,"[4]; 150 mg/day, Week 12",0.0714
same,Pre-bronchodilator FVC difference versus Placebo LSM,"[4]; 150 mg/day, Week 12",0.0304
same,"Pre-Bronchodilator FVC, % change from Baseline, mean","[4]; 150 mg/day, Week 16 or Week 18",7.33%
same,Pre-bronchodilator FVC change from Baseline LSM,"[4]; 150 mg/day, Week 16 or Week 18",0.143
same,Pre-bronchodilator FVC difference versus Placebo LSM,"[4]; 150 mg/day, Week 16 or Week 18",0.175
same,"Pre-Bronchodilator FVC, % change from Baseline, mean","[4]; 300 mg/day, Week 4",1.91%
same,Pre-bronchodilator FVC change from Baseline LSM,"[4]; 300 mg/day, Week 4",0.0983
same,Pre-bronchodilator FVC difference versus Placebo LSM,"[4]; 300 mg/day, Week 4",0.0844
same,"Pre-Bronchodilator FVC, % change from Baseline, mean","[4]; 300 mg/day, Week 8",11.5%
same,Pre-bronchodilator FVC change from Baseline LSM,"[4]; 300 mg/day, Week 8",0.322
same,Pre-bronchodilator FVC difference versus Placebo LSM,"[4]; 300 mg/day, Week 8",0.316
same,"Pre-Bronchodilator FVC, % change from Baseline, mean","[4]; 300 mg/day, Week 12",8.95%
same,Pre-bronchodilator FVC change from Baseline LSM,"[4]; 300 mg/day, Week 12",0.257
same,Pre-bronchodilator FVC difference versus Placebo LSM,"[4]; 300 mg/day, Week 12",0.216
same,"Pre-Bronchodilator FVC, % change from Baseline, mean","[4]; 300 mg/day, Week 16 or Week 18",9.11%
same,Pre-bronchodilator FVC change from Baseline LSM,"[4]; 300 mg/day, Week 16 or Week 18",0.267
same,Pre-bronchodilator FVC difference versus Placebo LSM,"[4]; 300 mg/day, Week 16 or Week 18",0.299
